# In patent publication US6358885B1, “Substituted phenylheterocyclic herbicides” (Mississippi State University, priority 1992, dated 2002):
# Experiments:
# cheatgrass = test: Test B preemergence/postemergence greenhouse plant response rating 0 to 10; type: in vivo, Bromus secalinus; conditions: for Plant response rating, Cheatgrass: 0 to 10 scale
# Outline: (§1)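 Postemergence treatment of plants two to eighteen cm tall ran alongside preemergence treatment of planted seed, each using compound in a non-phytotoxic solvent.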
# corn = test: as above; type: in vivo, Zea mays; conditions: for Plant response rating, Corn: 0 to 10 scale
# Outline: as §1
# cotton [1] = test: as above; type: in vivo, Gossypium hirsutum; conditions: for Plant response rating, Cotton: 0 to 10 scale
# Outline: as §1
# lambsquarters [2] = test: as above; type: in vivo, Chenopodium album; conditions: 0 to 10 scale
# Outline: as §1
# rice = test: as above; type: in vivo, Oryza sativa; conditions: 0 to 10 scale
# Outline: as §1
# wheat = test: as above; type: in vivo, Triticum aestivum; conditions: 0 to 10 scale
# Outline: as §1
# wild oat = test: as above; type: in vivo, Avena fatua; conditions: 0 to 10 scale
# Outline: as §1
# bedstraw = test: Test C preemergence/postemergence greenhouse plant response rating 0 to 100; type: in vivo, Galium aparine; conditions: for Plant response rating, Bedstraw: 0 to 100 scale
# Outline: (§2)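 Compounds in non-phytotoxic solvent applied preemergence to sandy loam one day after planting, postemergence at the 1–4 leaf stage, or to ~2.5 cm floodwater over silt loam.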
# cotton [3] = test: as above; type: in vivo, Gossypium hirsutum; conditions: for Plant response rating, Cotton: 0 to 100 scale
# Outline: as §2
# crabgrass = test: as above; type: in vivo, Digitaria sanguinalis; conditions: for Plant response rating, Crabgrass: 0 to 100 scale
# Outline: as §2
# downy brome = test: as above; type: in vivo, Bromus tectorum; conditions: for Plant response rating Downy Brome: 0 to 100 scale
# Outline: as §2
# giant foxtail = test: as above; type: in vivo, Setaria faberii; conditions: for Plant response rating, Giant foxtail: 0 to 100 scale
# Outline: as §2
# lambsquarters [4] = test: as above; type: in vivo, Chenopodium album; conditions: for Plant response rating Lambsquarters: 0 to 100 scale
# Outline: as §2
# sorghum = test: as above; type: in vivo, Sorghum bicolor; conditions: for Plant response rating, Sorghum: 0 to 100 scale
# Outline: as §2
# sugar beet = test: as above; type: in vivo, Beta vulgaris; conditions: for Plant response rating, Sugar beet: 0 to 100 scale
# Outline: as §2
# velvetleaf = test: as above; type: in vivo, Abutilon theophrasti; conditions: for Plant response rating, Velvetleaf: 0 to 100 scale
# Outline: as §2
# duck salad = test: Test C flood test plant response rating 0 to 100; type: in vivo, Heteranthera limosa; conditions: for Plant response rating Duck salad: flood test species listed under POSTEMERGENCE, 0 to 100 scale
# Outline: as §2
# barnyardgrass = test: Test C flood test plant response rating 0 to 100; type: in vivo, Echinochloa crus-galli; conditions: for Plant response rating (0 to 100), Barnyardgrass: under POSTEMERGENCE head (flood test species); for Plant response rating, Barnyardgrass: flood test species listed under POSTEMERGENCE, 0 to 100 scale
# Outline: as §2
structure (smiles),measurement,setting,value
C#CCOc1cc(-c2nn3c(c2Br)CCCC3)c(F)cc1Cl [Compound 26],"Plant response rating (0 to 10 scale), Cheatgrass","cheatgrass; POSTEMERGENCE, Rate 50 g/ha",5
same,"Plant response rating, Cheatgrass","cheatgrass; POSTEMERGENCE, Rate 200 g/ha",7
same,"Plant response rating, Cheatgrass","cheatgrass; PREEMERGENCE, Rate 50 g/ha",6
same,"Plant response rating, Cheatgrass","cheatgrass; Rate 200 g/ha, PREEMERGENCE",7
same,"Plant response rating (0 to 10 scale), Corn","corn; POSTEMERGENCE, Rate 50 g/ha",5
same,"Plant response rating, Corn","corn; POSTEMERGENCE, Rate 200 g/ha",5
same,"Plant response rating, Corn","corn; PREEMERGENCE, Rate 50 g/ha",4
same,"Plant response rating, Corn","corn; Rate 200 g/ha, PREEMERGENCE",6
same,"Plant response rating (0 to 10 scale), Cotton","cotton [1]; POSTEMERGENCE, Rate 50 g/ha",10
same,"Plant response rating, Cotton","cotton [1]; POSTEMERGENCE, Rate 200 g/ha",10
same,"Plant response rating, Cotton","cotton [1]; PREEMERGENCE, Rate 50 g/ha",3
same,"Plant response rating, Cotton","cotton [1]; Rate 200 g/ha, PREEMERGENCE",9
same,"Plant response rating, Lambsquarter","lambsquarters [2]; POSTEMERGENCE, Rate 50 g/ha",10
same,"Plant response rating, Lambsquarter","lambsquarters [2]; POSTEMERGENCE, Rate 200 g/ha",10
same,"Plant response rating, Lambsquarter","lambsquarters [2]; PREEMERGENCE, Rate 50 g/ha",10
same,"Plant response rating, Lambsquarter","lambsquarters [2]; Rate 200 g/ha, PREEMERGENCE",10
same,"Plant response rating, Rice","rice; POSTEMERGENCE, Rate 50 g/ha",5
same,"Plant response rating, Rice","rice; POSTEMERGENCE, Rate 200 g/ha",6
same,"Plant response rating, Rice","rice; PREEMERGENCE, Rate 50 g/ha",0
same,"Plant response rating, Rice","rice; Rate 200 g/ha, PREEMERGENCE",3
same,"Plant response rating, Wheat","wheat; POSTEMERGENCE, Rate 50 g/ha",4
same,"Plant response rating, Wheat","wheat; POSTEMERGENCE, Rate 200 g/ha",5
same,"Plant response rating, Wheat","wheat; PREEMERGENCE, Rate 50 g/ha",1
same,"Plant response rating, Wheat","wheat; Rate 200 g/ha, PREEMERGENCE",2
same,"Plant response rating, Wild oat","wild oat; POSTEMERGENCE, Rate 50 g/ha",5
same,"Plant response rating, Wild oat","wild oat; POSTEMERGENCE, Rate 200 g/ha",7
same,"Plant response rating, Wild oat","wild oat; Rate 200 g/ha, PREEMERGENCE",6
same,"Plant response rating, Bedstraw","bedstraw; POSTEMERGENCE, 62 g/ha",100
same,"Plant response rating, Bedstraw","bedstraw; POSTEMERGENCE, 250 g/ha",100
same,"Plant response rating, Bedstraw","bedstraw; PREEMERGENCE, 62 g/ha",100
same,"Plant response rating, Bedstraw","bedstraw; PREEMERGENCE, 250 g/ha",100
same,"Plant response rating (0 to 100), Bedstraw","bedstraw; PREEMERGENCE, Rate 4 g/ha",20
same,"Plant response rating (0 to 100), Bedstraw","bedstraw; Rate 4 g/ha, POSTEMERGENCE",70
same,"Plant response rating (0 to 100), Bedstraw","bedstraw; Rate 16 g/ha, POSTEMERGENCE",80
same,"Plant response rating (0 to 100), Bedstraw","bedstraw; Rate 16 g/ha, PREEMERGENCE",60
same,"Plant response rating, Cotton","cotton [3]; POSTEMERGENCE, 62 g/ha",100
same,"Plant response rating, Cotton","cotton [3]; POSTEMERGENCE, 250 g/ha",100
same,"Plant response rating (0 to 100), Cotton","cotton [3]; POSTEMERGENCE, Rate 4 g/ha",100
same,"Plant response rating, Cotton","cotton [3]; PREEMERGENCE, 62 g/ha",0
same,"Plant response rating, Cotton","cotton [3]; PREEMERGENCE, 250 g/ha",100
same,"Plant response rating (0 to 100), Cotton","cotton [3]; PREEMERGENCE, Rate 4 g/ha",0
same,"Plant response rating (0 to 100), Cotton","cotton [3]; Rate 16 g/ha, POSTEMERGENCE",100
same,"Plant response rating (0 to 100), Cotton","cotton [3]; Rate 16 g/ha, PREEMERGENCE",0
same,"Plant response rating, Crabgrass","crabgrass; POSTEMERGENCE, 62 g/ha",20
same,"Plant response rating, Crabgrass","crabgrass; POSTEMERGENCE, 250 g/ha",40
same,"Plant response rating (0 to 100), Crabgrass","crabgrass; POSTEMERGENCE, Rate 4 g/ha",0
same,"Plant response rating, Crabgrass","crabgrass; PREEMERGENCE, 62 g/ha",20
same,"Plant response rating, Crabgrass","crabgrass; PREEMERGENCE, 250 g/ha",60
same,"Plant response rating (0 to 100), Crabgrass","crabgrass; PREEMERGENCE, Rate 4 g/ha",0
same,"Plant response rating (0 to 100), Crabgrass","crabgrass; Rate 16 g/ha, POSTEMERGENCE",0
same,"Plant response rating (0 to 100), Crabgrass","crabgrass; Rate 16 g/ha, PREEMERGENCE",0
same,Plant response rating Downy Brome,"downy brome; POSTEMERGENCE, 62 g/ha",50
same,Plant response rating Downy Brome,"downy brome; POSTEMERGENCE, 250 g/ha",70
same,"Plant response rating (0 to 100), Downy Brome","downy brome; POSTEMERGENCE, Rate 4 g/ha",20
same,Plant response rating Downy Brome,"downy brome; PREEMERGENCE, 62 g/ha",0
same,Plant response rating Downy Brome,"downy brome; PREEMERGENCE, 250 g/ha",20
same,"Plant response rating (0 to 100), Downy Brome","downy brome; PREEMERGENCE, Rate 4 g/ha",0
same,"Plant response rating (0 to 100), Downy Brome","downy brome; Rate 16 g/ha, POSTEMERGENCE",40
same,"Plant response rating (0 to 100), Downy Brome","downy brome; Rate 16 g/ha, PREEMERGENCE",0
same,"Plant response rating, Giant foxtail","giant foxtail; POSTEMERGENCE, 62 g/ha",50
same,"Plant response rating, Giant foxtail","giant foxtail; POSTEMERGENCE, 250 g/ha",70
same,"Plant response rating (0 to 100), Giant foxtail","giant foxtail; POSTEMERGENCE, Rate 4 g/ha",0
same,"Plant response rating, Giant foxtail","giant foxtail; PREEMERGENCE, 62 g/ha",70
same,"Plant response rating, Giant foxtail","giant foxtail; PREEMERGENCE, 250 g/ha",100
same,"Plant response rating (0 to 100), Giant foxtail","giant foxtail; PREEMERGENCE, Rate 4 g/ha",0
same,"Plant response rating (0 to 100), Giant foxtail","giant foxtail; Rate 16 g/ha, POSTEMERGENCE",40
same,"Plant response rating (0 to 100), Giant foxtail","giant foxtail; Rate 16 g/ha, PREEMERGENCE",30
same,Plant response rating Lambsquarters,"lambsquarters [4]; POSTEMERGENCE, 62 g/ha",100
same,Plant response rating Lambsquarters,"lambsquarters [4]; POSTEMERGENCE, 250 g/ha",100
same,"Plant response rating (0 to 100), Lambsquarters","lambsquarters [4]; POSTEMERGENCE, Rate 4 g/ha",80
same,Plant response rating Lambsquarters,"lambsquarters [4]; PREEMERGENCE, 62 g/ha",100
same,Plant response rating Lambsquarters,"lambsquarters [4]; PREEMERGENCE, 250 g/ha",100
same,"Plant response rating (0 to 100), Lambsquarters","lambsquarters [4]; PREEMERGENCE, Rate 4 g/ha",80
same,"Plant response rating (0 to 100), Lambsquarters","lambsquarters [4]; Rate 16 g/ha, POSTEMERGENCE",80
same,"Plant response rating (0 to 100), Lambsquarters","lambsquarters [4]; Rate 16 g/ha, PREEMERGENCE",100
same,"Plant response rating, Sorghum","sorghum; POSTEMERGENCE, 62 g/ha",50
same,"Plant response rating, Sorghum","sorghum; POSTEMERGENCE, 250 g/ha",50
same,"Plant response rating (0 to 100), Sorghum","sorghum; POSTEMERGENCE, Rate 4 g/ha",20
same,"Plant response rating, Sorghum","sorghum; PREEMERGENCE, 250 g/ha",50
same,"Plant response rating (0 to 100), Sorghum","sorghum; PREEMERGENCE, Rate 4 g/ha",0
same,"Plant response rating (0 to 100), Sorghum","sorghum; Rate 16 g/ha, POSTEMERGENCE",30
same,"Plant response rating (0 to 100), Sorghum","sorghum; Rate 16 g/ha, PREEMERGENCE",20
same,"Plant response rating, Sugar beet","sugar beet; POSTEMERGENCE, 62 g/ha",100
same,"Plant response rating, Sugar beet","sugar beet; POSTEMERGENCE, 250 g/ha",100
same,"Plant response rating (0 to 100), Sugar beet","sugar beet; POSTEMERGENCE, Rate 4 g/ha",100
same,"Plant response rating, Sugar beet","sugar beet; PREEMERGENCE, 250 g/ha",100
same,"Plant response rating (0 to 100), Sugar beet","sugar beet; PREEMERGENCE, Rate 4 g/ha",0
same,"Plant response rating (0 to 100), Sugar beet","sugar beet; Rate 16 g/ha, POSTEMERGENCE",100
same,"Plant response rating (0 to 100), Sugar beet","sugar beet; Rate 16 g/ha, PREEMERGENCE",20
same,"Plant response rating, Velvetleaf","velvetleaf; POSTEMERGENCE, 62 g/ha",100
same,"Plant response rating, Velvetleaf","velvetleaf; POSTEMERGENCE, 250 g/ha",100
same,"Plant response rating (0 to 100), Velvetleaf","velvetleaf; POSTEMERGENCE, Rate 4 g/ha",90
same,"Plant response rating, Velvetleaf","velvetleaf; PREEMERGENCE, 250 g/ha",100
same,"Plant response rating (0 to 100), Velvetleaf","velvetleaf; PREEMERGENCE, Rate 4 g/ha",50
same,"Plant response rating (0 to 100), Velvetleaf","velvetleaf; Rate 16 g/ha, POSTEMERGENCE",100
same,"Plant response rating (0 to 100), Velvetleaf","velvetleaf; Rate 16 g/ha, PREEMERGENCE",90
same,"Plant response rating (0 to 100), Duck salad","duck salad; POSTEMERGENCE section, flood test, Rate 4 g/ha",55
same,"Plant response rating (0 to 100), Duck salad","duck salad; Rate 16 g/ha, under POSTEMERGENCE head (flood test species)",60
same,Plant response rating Duck salad,duck salad; 62 g/ha,70
same,Plant response rating Duck salad,duck salad; 250 g/ha,90
same,"Plant response rating (0 to 100), Barnyardgrass",barnyardgrass; Rate 4 g/ha,100
same,"Plant response rating (0 to 100), Barnyardgrass",barnyardgrass; Rate 16 g/ha,100
same,"Plant response rating, Barnyardgrass",barnyardgrass; 62 g/ha,100
same,"Plant response rating, Barnyardgrass",barnyardgrass; 250 g/ha,100
